From PubChem BioAssay (NCI)
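Method: 48-hour compound exposure of cells in 96-well plates, five concentrations, linear interpolation of endpoints. TGI: total growth inhibition.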

Experiments:
Test in all cases: NCI anticancer screen, dose series, 48 h
[1] = tested on: NCI-H226 lung
[2] = tested on: SN12C renal
[3] = tested on: HOP-92 NSCLC
[4] = tested on: K-562 leukemia
[5] = tested on: SK-MEL-28 melanoma
[6] = tested on: NCI/ADR-RES ovarian
[7] = tested on: SK-OV-3 ovarian
[8] = tested on: SK-MEL-5 melanoma
[9] = tested on: SF-295 CNS
[10] = tested on: T-47D breast
[11] = tested on: EKVX NSCLC
[12] = tested on: SR leukemia
[13] = tested on: TK-10 renal
[14] = tested on: HL-60(TB) leukemia
[15] = tested on: OVCAR-3 ovarian
[16] = tested on: RPMI-8226 leukemia
[17] = tested on: HT29 colon
[18] = tested on: PC-3 prostate
[19] = tested on: 786-0 renal
[20] = tested on: SF-268 CNS
[21] = tested on: COLO 205 colon
[22] = tested on: SNB-19 CNS
[23] = tested on: HCT-116 colon
[24] = tested on: OVCAR-8 ovarian
[25] = tested on: M14 melanoma
[26] = tested on: UO-31 renal
[27] = tested on: MOLT-4 leukemia
[28] = tested on: HS 578T breast
[29] = tested on: SW-620 colon
[30] = tested on: SNB-75 CNS
[31] = tested on: OVCAR-5 ovarian
[32] = tested on: BT-549 breast
[33] = tested on: DU-145 prostate
[34] = tested on: OVCAR-4 ovarian
[35] = tested on: A549 NSCLC
[36] = tested on: CCRF-CEM leukemia
[37] = tested on: SK-MEL-2 melanoma
[38] = tested on: IGROV1 ovarian
[39] = tested on: HCC-2998 colon
[40] = tested on: A498 renal
[41] = tested on: MCF7 breast
[42] = tested on: NCI-H460 lung
[43] = tested on: KM12 colon
[44] = tested on: ACHN renal
[45] = tested on: NCI-H23 lung
[46] = tested on: HCT-15 colon
[47] = tested on: MDA-MB-435
[48] = tested on: SF-539 CNS
[49] = tested on: HOP-62 NSCLC
[50] = tested on: RXF 393 renal
[51] = tested on: MDA-MB-231 breast
[52] = tested on: UACC-257 melanoma
[53] = tested on: NCI-H522 lung
[54] = tested on: U251 CNS
[55] = tested on: UACC-62 melanoma
[56] = tested on: CAKI-1 renal

Measured: TGI

CC(C)(C)OC(=O)N(CCCCNC(=O)C(F)(F)F)CCCNC(=O)C(F)(F)F
> 100 µM: all assays above
